From patent US10328052B2, “D-proline derivatives as SAP depleting agent” (GlaxoSmithKline Intellectual Property Development Limited, priority 2015, dated 2019)
Like-named read-outs stand apart in the source and are kept apart here.

Legend:
[1] = very low and variable; cited from earlier work
[2] = biological target: T1, SAP (Homo sapiens, UniProt P02743); details: cited from earlier work
T1 construct: reduces the CSF SAP concentration from 2-30 μg/L to <0.1 μg/L in patients with Alzheimer's disease; host or cells: patients' plasma and cerebrospinal fluid (in vivo)

[3] = biological target: T2, circulating SAP (Homo sapiens, UniProt P02743); details: systemic amyloidosis patients, for as long as the drug was administered; cited from earlier work
T2 construct: host or cells: patients' plasma (in vivo)

[4] = biological target: T3, CYP3A4 (Homo sapiens, UniProt P08684); assay: Cytochrome p450 inhibition, bactosomes, fluorogenic substrates 7BQ and DEF; type: in vitro ADME; details: for IC50: bactosomes
T3 construct: purchased Cypex; host or cells: bactosomes (bacterial membranes)
Protocol: The assay was designed to evaluate inhibition on cytochrome P450 (CYP) 3A4, 2C9, 2C19, 1A2 and 2D6 enzymes from bactosomes source using fluorogenic substrates. Compound (compound of Formula (I) or Comparator Compound) was dissolved in methanol at 1.65 mM. Daughter solutions were prepared in methanol at 660, 264, 106, 42, 17, 6.8, 2.7, 1.1 and 0.43 μM. NADPH cofactor was prepared with Glucose-6-phosphate (7.8 mg), Glucose-6-phosphate dehydrogenase (6 units), NADP (1.7 mg) per 1 mL in NaHCO3 2%. Substrate Preparation was as Follows: • 7-Methoxy-4-triFluoromethyl Coumarin-3-Acetic acid ethyl ester (FCA): 12.5 mM in acetonitrile • EthoxyResorufin (ER): 0.05 mM in acetonitrile • 4-MethylaminoMethyl-7-Methoxy Coumarin (MMC): 2.5 mM in methanol • 3-Butyryl-7Methoxy Coumarin (BMC): 2.5 mM in DMSO • 7-BenzyloxyQuinoline (7BQ): 2.5 mM in acetonitrile • DiEthoxyFluorescein (DEF): 0.1 mM in acetonitrile Bactosomes (Cypex source) at the concentration of 10 mg of protein per mL were diluted in phosphate buffer 50 mM pH7.4: • 0.33 mL of bactosomes CYP2C9 with 23.8 mL of buffer and 0.11 mL of FCA • 0.33 mL of bactosomes CYP1A2 with 23.6 mL of buffer and 0.275 mL of ER • 0.33 mL of bactosomes CYP2D6 with 23.8 mL of buffer and 0.11 mL of MMC • 0.33 mL of bactosomes CYP2C19 with 23.8 mL of buffer and 0.11 mL of BMC • 0.33 mL of bactosomes CYP3[…] with 23.6 mL of buffer and 0.275 mL of 7BQ • 0.33 mL of bactosomes CYP3[…] with 23.6 mL of buffer and 0.275 mL of DEF Pre-Incubation consisted in mixing 5 μL of compound solution with 220 μL diluted bactosomes and warming it at 37° C. for 10 min. Incubation was started with the addition of 25 μL of NADPH. Then fluorescence of substrate metabolite was read in a SAFIRE instrument (from Tecan) for 5 min: • FCA (2C9): Excitation at 410 nm and Emission at 510 nm • ER (1A2): Excitation at 530 nm and Emission at 590 nm • MMC (2D6): Excitation at 410 nm and Emission at 485 nm • BMC (2C19): Excitation at 410 nm and Emission at 465 nm • 7BQ (3A4H): Excitation at 410 nm and Emission at 530 nm • DEF (3A4L): Excitation at 485 nm and Emission at 530 nm Plotting of inhibition of substrate production against compound concentration allowed the determination of IC50 values.

[5] = biological target: T4, CYP2C19 (Homo sapiens, UniProt P33261); assay: Cytochrome p450 inhibition, bactosomes, fluorogenic substrate BMC; type: in vitro ADME
T4 construct: purchased Cypex; host or cells: bactosomes (bacterial membranes)
Protocol: (§1) The assay was designed to evaluate inhibition on cytochrome P450 (CYP) 3A4, 2C9, 2C19, 1A2 and 2D6 enzymes from bactosomes source using fluorogenic substrates. Compound (compound of Formula (I) or Comparator Compound) was dissolved in methanol at 1.65 mM. Daughter solutions were prepared in methanol at 660, 264, 106, 42, 17, 6.8, 2.7, 1.1 and 0.43 μM. NADPH cofactor was prepared with Glucose-6-phosphate (7.8 mg), Glucose-6-phosphate dehydrogenase (6 units), NADP (1.7 mg) per 1 mL in NaHCO3 2%. […]

[6] = biological target: T5, CYP1A2 (Homo sapiens, UniProt P05177); assay: Cytochrome p450 inhibition, bactosomes, fluorogenic substrate ER; type: in vitro ADME
T5 construct: purchased Cypex; host or cells: bactosomes (bacterial membranes)
T5 sequence (P05177 1-516): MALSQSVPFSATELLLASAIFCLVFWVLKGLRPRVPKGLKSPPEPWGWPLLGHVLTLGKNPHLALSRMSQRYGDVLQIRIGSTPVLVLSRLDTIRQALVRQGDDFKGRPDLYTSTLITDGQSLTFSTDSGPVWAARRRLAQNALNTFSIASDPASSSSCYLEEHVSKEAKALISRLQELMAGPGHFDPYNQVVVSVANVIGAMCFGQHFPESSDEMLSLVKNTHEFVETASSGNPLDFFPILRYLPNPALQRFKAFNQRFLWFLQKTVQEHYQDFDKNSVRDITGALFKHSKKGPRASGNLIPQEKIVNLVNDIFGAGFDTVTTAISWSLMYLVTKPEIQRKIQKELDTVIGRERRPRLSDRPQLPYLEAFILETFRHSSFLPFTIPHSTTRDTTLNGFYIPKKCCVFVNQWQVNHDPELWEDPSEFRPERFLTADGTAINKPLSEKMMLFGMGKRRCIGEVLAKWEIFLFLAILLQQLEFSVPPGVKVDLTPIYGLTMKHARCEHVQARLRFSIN
Protocol: as §1

[7] = Intestinal microsomal stability; type: in vitro ADME; details: up to 30 minutes, 37° C.
Protocol: The assay was designed for determining stability of compound in microsomal matrix. Compound (Compound of Formula (I)) was dissolved in DMSO at 1 mg/mL. Daughter solution was prepared in methanol/water (50/50) at 30.3 ng/mL. Microsomes (from Xenotech) were diluted at 0.625 mg proteins per mL in phosphate buffer 50 mM pH 7.4.
Pre-Incubation consisted of warming microsomal solution 395 μL with 100 μL NaHCO3 (2%) at 37° C. for 7 min. Incubation was started with the addition of 5 μL of daughter solution. 50 μL aliquots of mixture were taken at 0, 3, 6, 12 and 30 min and quenched with 150 μL acetonitrile containing internal standard.
(§2) After 10 min centrifugation at 4000 rpm, 2 μL of samples were injected into the liquid chromatography system and eluted on a Ascentis C18 column (50×2.1 mm id, 2.7 μm) with 0.1% formic acid in water (A) and 0.1% formic acid in acetonitrile (B), using the following 2 minute elution gradient: 5 to 95% B over 1.2 min, 95% B over 0.6 min and 0.1 min for re-equilibrate column, at 0.5 mL/min at 50° C.
Samples were analysed by Mass Spectrometry with an electrospray source, in positive mode and with following mass transitions: • Compound of Formula (I): 625 to 368 • Monoester of CPHPC: 483 to 226 • CPHPC: 341 to 226
Controls were made to calculate percentage of disappearance of parent but also appearance of suspected metabolite, i.e. monoester and diacidic form.

[8] = biological target: T6, CYP2C9 (Homo sapiens, UniProt P11712); assay: Cytochrome p450 inhibition, bactosomes, fluorogenic substrate FCA; type: in vitro ADME
T6 construct: purchased Cypex; host or cells: bactosomes (bacterial membranes)
Protocol: as §1

[9] = Solubility in aqueous media; type: physicochemical; details: thermodynamic from solid, 4 hour timepoint, read-out: Solubility (mg/mL) at 4 hour timepoint
Protocol: A known quantity of the compound of Formula (I) was weighed into a suitable vessel (e.g. a screw capped clear glass vial) and a known volume of the required media added (e.g. Simulated Gastric Fluid pH 1.6 [SGF], Simulated Fed State Intestinal Fluid pH 6.5 [FeSSIF], Simulated Fasted State Intestinal Fluid pH 6.5 [FaSSIF], Water [Purified Water], or Britton-Robinson buffer). The compound was wetted with the media by vortex mixing for 30 seconds to 1 minute. The sample was then visually observed to ensure that undissolved solid remained present. The sample was transferred to a gentle mixer (such as a roller mixer) and allowed to agitate until the desired time point was reached. At appropriate times the sample was reassessed visually. If all the solid had dissolved the solubility was recorded as >x mg/mL where x is the known weight used divided by the volume added. If undissolved solid remained a portion of the sample was taken and centrifuged to remove the solid leaving a clear supernatant. The supernatant was diluted volumetrically with a suitable diluent to provide an analytical sample of suitable concentration for analysis. This diluted sample was then analysed by a suitable method such as HPLC against a standard(s) of known concentration. The solubility of the compound can then be calculated using a knowledge of the concentration of the standard, the relative response (e.g. peak areas) of the standard and the analytical sample described, and the dilution of the analytical sample.

[10] = Physical stability (hydrolysis) in phosphate buffer at various pHs; type: physicochemical
Protocol: The assay was designed for determining physical stability of compound in buffer at various pHs. Compound of Formula (I) was dissolved in DMSO at 1 mg/mL. Phosphate buffer (PBS) was prepared by mixing K2HPO4 50 mM and KH2PO4 50 mM solutions to obtain 4 buffers at pH 6.0, 7.0, 7.5, 8.0.
Stability studies were conducted at room temperature, and were started by the addition of 8 μL of DMSO solution to 792 μL of PBS 50 mM at pH 6.0, 7.0, 7.5 or 8.0 (1% DMSO). 75 μl of mixture was taken at 0, 1, 2, 4 and 24 h and 225 μL acetonitrile containing internal standard was added.
as §2, with “2” for “After 10 min centrifugation at 4000 rpm, 2”, “eluted with” for “eluted on”, “μm) and” for “μm)”, “following elution” for “following”, “2 min” for “2 minute elution”
Samples were analysed by Mass Spectrometry with an electrospray source and in positive mode and with following mass transitions: • Compound of Formula (I): 625 to 368 • Monoester of CPHPC: 483 to 226 • CPHPC: 341 to 226

[11] = biological target: T7, CYP2D6 (Homo sapiens, UniProt P10635); assay: Cytochrome p450 inhibition, bactosomes, fluorogenic substrate MMC; type: in vitro ADME
T7 construct: purchased Cypex; host or cells: bactosomes (bacterial membranes)
Protocol: as §1

[12] = substrate DEF, read-out: IC50 CYP3A4 (DEF)

T3 sequence (P08684 whole entry): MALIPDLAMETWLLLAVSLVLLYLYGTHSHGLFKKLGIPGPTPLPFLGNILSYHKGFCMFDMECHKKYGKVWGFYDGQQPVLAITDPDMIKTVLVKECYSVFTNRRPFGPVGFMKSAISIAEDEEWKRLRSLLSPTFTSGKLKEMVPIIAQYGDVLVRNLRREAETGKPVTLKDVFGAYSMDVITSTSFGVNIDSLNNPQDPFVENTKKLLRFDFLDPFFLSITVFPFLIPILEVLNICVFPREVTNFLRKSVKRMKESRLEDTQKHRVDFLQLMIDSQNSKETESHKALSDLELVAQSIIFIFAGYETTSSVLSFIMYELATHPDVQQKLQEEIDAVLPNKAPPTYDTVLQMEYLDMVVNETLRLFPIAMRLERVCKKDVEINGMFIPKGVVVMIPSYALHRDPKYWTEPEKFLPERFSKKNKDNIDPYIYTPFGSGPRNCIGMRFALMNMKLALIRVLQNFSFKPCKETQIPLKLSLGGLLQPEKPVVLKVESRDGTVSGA
T4 sequence (P33261 whole entry): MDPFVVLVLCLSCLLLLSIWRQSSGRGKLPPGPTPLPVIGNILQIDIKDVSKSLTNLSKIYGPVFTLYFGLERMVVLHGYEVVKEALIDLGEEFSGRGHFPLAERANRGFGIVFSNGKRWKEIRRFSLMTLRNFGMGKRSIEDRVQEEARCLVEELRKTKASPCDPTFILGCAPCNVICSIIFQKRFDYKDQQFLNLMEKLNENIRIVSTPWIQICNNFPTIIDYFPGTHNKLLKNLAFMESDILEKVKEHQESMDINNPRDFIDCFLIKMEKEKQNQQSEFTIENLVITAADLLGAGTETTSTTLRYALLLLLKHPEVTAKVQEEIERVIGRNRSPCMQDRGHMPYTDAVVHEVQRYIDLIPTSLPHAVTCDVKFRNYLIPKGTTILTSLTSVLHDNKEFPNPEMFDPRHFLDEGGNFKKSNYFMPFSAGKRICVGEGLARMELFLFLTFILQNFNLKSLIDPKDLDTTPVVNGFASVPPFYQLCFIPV
T7 sequence (P10635 whole entry): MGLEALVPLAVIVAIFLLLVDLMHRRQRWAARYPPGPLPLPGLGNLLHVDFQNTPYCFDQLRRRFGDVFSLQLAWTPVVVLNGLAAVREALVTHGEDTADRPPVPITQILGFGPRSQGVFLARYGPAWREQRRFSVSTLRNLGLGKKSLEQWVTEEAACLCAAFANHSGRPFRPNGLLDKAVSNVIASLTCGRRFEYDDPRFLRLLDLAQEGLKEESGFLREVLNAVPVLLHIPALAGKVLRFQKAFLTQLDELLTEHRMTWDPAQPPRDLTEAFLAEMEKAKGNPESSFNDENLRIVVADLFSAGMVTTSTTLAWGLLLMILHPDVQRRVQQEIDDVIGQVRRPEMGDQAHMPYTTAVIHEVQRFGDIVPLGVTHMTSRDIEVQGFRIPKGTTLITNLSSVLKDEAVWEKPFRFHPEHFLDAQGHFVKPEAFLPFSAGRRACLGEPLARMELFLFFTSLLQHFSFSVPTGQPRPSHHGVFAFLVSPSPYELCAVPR
T6 sequence (P11712 whole entry): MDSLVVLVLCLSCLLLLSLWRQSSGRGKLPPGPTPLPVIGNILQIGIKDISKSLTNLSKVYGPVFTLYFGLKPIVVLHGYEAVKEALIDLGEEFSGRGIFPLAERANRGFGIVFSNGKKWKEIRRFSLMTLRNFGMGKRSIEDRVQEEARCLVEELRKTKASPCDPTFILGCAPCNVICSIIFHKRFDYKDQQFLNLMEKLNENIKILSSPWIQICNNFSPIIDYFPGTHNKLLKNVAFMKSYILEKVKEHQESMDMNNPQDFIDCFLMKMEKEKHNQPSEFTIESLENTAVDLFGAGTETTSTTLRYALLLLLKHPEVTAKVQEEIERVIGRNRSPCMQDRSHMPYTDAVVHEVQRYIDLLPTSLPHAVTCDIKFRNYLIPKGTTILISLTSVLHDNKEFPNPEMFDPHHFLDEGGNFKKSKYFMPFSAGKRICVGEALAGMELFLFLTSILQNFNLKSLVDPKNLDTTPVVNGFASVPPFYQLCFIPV
T1 sequence (P02743 20-223): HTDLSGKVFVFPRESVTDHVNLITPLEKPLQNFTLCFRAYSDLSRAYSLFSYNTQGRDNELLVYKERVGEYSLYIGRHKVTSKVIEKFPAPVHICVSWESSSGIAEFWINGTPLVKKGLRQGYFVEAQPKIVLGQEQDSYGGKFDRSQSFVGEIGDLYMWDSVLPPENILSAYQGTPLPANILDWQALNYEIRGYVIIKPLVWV
T2 sequence (P02743 20-223): as above

For O=C(O)[C@H]1CCCN1C(=O)CCCCC(=O)N1CCC[C@@H]1C(=O)O [CPHPC, (R)-1-[6-[(R)-2-carboxy-pyrrolidin-1-yl]-6-oxo-hexanoyl]pyrrolidine-2-carboxylic acid], the oral bioavailability [1] is listed as 3-5%, the “CSF SAP concentration after depletion by CPHPC” value ([2]; CSF, patients with Alzheimer's disease, from 2-30 μg/L) is listed as less than 0.1 µg/L and the “plasma SAP after depletion by CPHPC” value ([2]; plasma, from the normal 20-50 mg/L) is listed as less than 0.1 mg/L. For the same compound, the “depletion of circulating SAP (in words)” value [3] was “almost complete depletion”.

For CC(OC(=O)[C@H]1CCCN1C(=O)CCCCC(=O)N1CCC[C@@H]1C(=O)OC(C)OC(=O)C(C)(C)C)OC(=O)C(C)(C)C (stereo partly drawn) [Comparator Compound, (2R,2′R)-bis(1-(pivaloyloxy)ethyl) 1,1′-adipoylbis(pyrrolidine-2-carboxylate), reference compound], the “inhibition of CYP3A4-7BQ (in words)” value ([4]; substrate 7BQ) was “significant inhibition” and the “inhibition of CYP3A4-DEF (in words)” value ([4]; substrate DEF) was “significant inhibition”.

For O=C(OCOC(=O)[C@H]1CCCN1C(=O)CCCCC(=O)N1CCC[C@@H]1C(=O)OCOC(=O)C1CCOCC1)C1CCOCC1 [Compound of Formula (I), (2R,2′R)-bis(((tetrahydro-2H-pyran-4-carbonyl)oxy)methyl) 1,1′-adipoylbis(pyrrolidine-2-carboxylate)], the IC50 [5] was greater than 33 µM, the IC50 [6] was greater than 33 µM and the “rate of hydrolysis in human intestinal microsomes (in words)” value [7] was “low rate of hydrolysis”. It also gave an IC50 [8] greater than 33 µM, a solubility at 4 h ([9]; FaSSIF (Simulated Fasted State Intestinal Fluid pH 6.5)) of 1.04 mg/mL and a solubility at 4 h ([9]; FeSSIF (Simulated Fed State Intestinal Fluid pH 6.5)) of 0.599 mg/mL. The solubility at 4 h ([9]; SGF (Simulated Gastric Fluid pH 1.6)) was 0.577 mg/mL, the solubility at 4 h ([9]; water (purified water), Water) was 0.574 mg/mL and the “sensitivity to hydrolysis at different pH (in words)” value ([10]; PBS pH6 to pH8, room temperature) was “less sensitive to hydrolysis for a pH below 7.5”. The “compound hydrolysed after 24 h” value ([10]; acidic environment (pH less than 7.0), PBS, room temperature, 24 h) was “Less than 20%”, the IC50 ([4]; substrate 7BQ, read-out: IC50 CYP3A4 (7BQ)) was greater than 33 µM and the IC50 [4, 12] was greater than 33 µM. The IC50 [11] was greater than 33 µM.

O=C(OCOC(=O)[C@H]1CCCN1C(=O)CCCCC(=O)N1CCC[C@@H]1C(=O)O)C1CCOCC1 [mono-ester derivative, (R)-1-(6-oxo-6-((R)-2-((((tetrahydro-2H-pyran-4-carbonyl)oxy)methoxy)carbonyl)pyrrolidin-1-yl)hexanoyl)pyrrolidine-2-carboxylic acid] gave an IC50 [5] greater than 33 µM, an IC50 [6] greater than 33 µM and an IC50 [8] greater than 33 µM. The IC50 [4, 12] was greater than 33 µM and the IC50 [11] was greater than 33 µM.
